The text below walks through data of US11981658B2, “Substituted aminopyridine compounds as EGFR inhibitors” (YUHAN CORPORATION, priority 2021, dated 2024).

Read-outs that look alike come from different tables or passages of the source.

One assay concerns the target EGFR Del19/T790M/C797S (Homo sapiens, UniProt P00533, C797S/DEL746-750/T790M). The experiment in a line: Biochemical EGFR kinase inhibition assay (Lance Ultra TR-FRET), triple mutant del19/T790M/C797S. The essentials:
(§1)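 Enzyme reactions lasted 1 hour at room temperature with test compounds between 0.003 and 10 μM, followed by 10 mM EDTA quench.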

The target in the next assay is EGFR L858R/T790M/C797S (Homo sapiens, UniProt P00533, C797S/L858R/T790M). The experiment in a line: Biochemical EGFR kinase inhibition assay (Lance Ultra TR-FRET), triple mutant L858R/T790M/C797S. The essentials: as §1
Background: Time-resolved FRET reads energy transfer from a long-lived donor to a nearby acceptor.

A further assay has as its target EGFR L858R/C797S (Homo sapiens, UniProt P00533, C797S/L858R). The experiment in a line: Biochemical EGFR kinase inhibition assay (Lance Ultra TR-FRET), double mutant L858R/C797S. In outline:
as §1

Another assay has as its target EGFR wildtype (WT) (Homo sapiens, UniProt P00533). The assay is described as follows: Biochemical EGFR kinase inhibition assay (Lance Ultra TR-FRET), wildtype. In outline: as §1
In another assay the target is EGFR Del19/C797S (Homo sapiens, UniProt P00533, C797S/DEL746-750). The experiment in a line: Biochemical EGFR kinase inhibition assay (Lance Ultra TR-FRET), double mutant del19/C797S. In outline:
as §1

Setting [1] is: IC50 Del19/T790M/C797S (nM), 100 μM ATP.
Setting [2] is: IC50 L858R/T790M/C797S (nM), 100 μM ATP.
Where [3] appears, read: IC50 L858R/C797S (nM), 100 μM ATP.
Setting [4] is: IC50 Del19/C797S (nM), 100 μM ATP.
Where [5] appears, read: Km ATP, read-out: IC50 Del19/T790M/C797S (nM) Km ATP.
[6] abbreviates: Km ATP, read-out: IC50 L858R/T790M/C797S (nM) Km ATP.
[7] abbreviates: Km ATP, read-out: IC50 L858R/C797S (nM) Km ATP.
Setting [8] is: Km ATP, read-out: IC50 WT (nM) Km ATP.
Where [9] appears, read: Km ATP, read-out: IC50 Del19/C797S (nM) Km ATP.
Where [10] appears, read: ATP at Km, read-out: IC50 Del19/T790M/C797S (nM), Km ATP.
The mark [11] stands for this setting: ATP at Km, read-out: IC50 L858R/T790M/C797S (nM), Km ATP.
The mark [12] stands for this setting: ATP at Km, read-out: IC50 L858R/C797S (nM), Km ATP.
[13] abbreviates: ATP at Km, read-out: IC50 WT (nM), Km ATP.
[14] abbreviates: ATP at Km, read-out: IC50 Del19/C797S (nM), Km ATP.

EGFR wildtype (WT), sequence (P00533 25-1210): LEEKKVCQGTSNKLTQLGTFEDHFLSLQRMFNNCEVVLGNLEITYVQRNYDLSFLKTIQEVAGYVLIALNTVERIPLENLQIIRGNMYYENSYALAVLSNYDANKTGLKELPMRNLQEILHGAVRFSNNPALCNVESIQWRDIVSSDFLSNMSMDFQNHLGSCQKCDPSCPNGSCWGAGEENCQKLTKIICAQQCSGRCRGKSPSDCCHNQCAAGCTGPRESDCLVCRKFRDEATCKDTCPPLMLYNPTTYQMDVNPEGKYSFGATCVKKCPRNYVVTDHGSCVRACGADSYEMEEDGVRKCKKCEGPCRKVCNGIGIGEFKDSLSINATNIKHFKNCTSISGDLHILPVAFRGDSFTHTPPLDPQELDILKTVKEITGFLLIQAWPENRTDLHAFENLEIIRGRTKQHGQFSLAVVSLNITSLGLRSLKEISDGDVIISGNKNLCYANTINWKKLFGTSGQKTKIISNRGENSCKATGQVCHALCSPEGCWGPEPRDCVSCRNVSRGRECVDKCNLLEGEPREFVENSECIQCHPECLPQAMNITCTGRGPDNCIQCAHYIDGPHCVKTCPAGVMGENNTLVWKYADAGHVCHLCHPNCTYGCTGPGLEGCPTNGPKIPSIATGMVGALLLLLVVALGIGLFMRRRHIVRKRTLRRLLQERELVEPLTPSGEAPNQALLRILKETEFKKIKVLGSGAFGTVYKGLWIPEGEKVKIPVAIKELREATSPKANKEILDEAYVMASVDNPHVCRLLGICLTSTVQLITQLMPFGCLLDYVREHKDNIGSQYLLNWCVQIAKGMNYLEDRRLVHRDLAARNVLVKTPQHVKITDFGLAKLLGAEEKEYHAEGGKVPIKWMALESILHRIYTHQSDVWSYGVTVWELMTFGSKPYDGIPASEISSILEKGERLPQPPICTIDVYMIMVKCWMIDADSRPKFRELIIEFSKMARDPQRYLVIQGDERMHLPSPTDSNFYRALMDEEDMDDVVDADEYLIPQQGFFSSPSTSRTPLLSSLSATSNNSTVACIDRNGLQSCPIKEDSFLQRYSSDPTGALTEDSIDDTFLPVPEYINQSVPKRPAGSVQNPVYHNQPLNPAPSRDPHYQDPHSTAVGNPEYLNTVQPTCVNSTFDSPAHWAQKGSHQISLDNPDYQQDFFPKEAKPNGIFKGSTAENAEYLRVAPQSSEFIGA
EGFR Del19/T790M/C797S, sequence (P00533 with tags, fused parts or gaps DEL746-750/T790M/C797S): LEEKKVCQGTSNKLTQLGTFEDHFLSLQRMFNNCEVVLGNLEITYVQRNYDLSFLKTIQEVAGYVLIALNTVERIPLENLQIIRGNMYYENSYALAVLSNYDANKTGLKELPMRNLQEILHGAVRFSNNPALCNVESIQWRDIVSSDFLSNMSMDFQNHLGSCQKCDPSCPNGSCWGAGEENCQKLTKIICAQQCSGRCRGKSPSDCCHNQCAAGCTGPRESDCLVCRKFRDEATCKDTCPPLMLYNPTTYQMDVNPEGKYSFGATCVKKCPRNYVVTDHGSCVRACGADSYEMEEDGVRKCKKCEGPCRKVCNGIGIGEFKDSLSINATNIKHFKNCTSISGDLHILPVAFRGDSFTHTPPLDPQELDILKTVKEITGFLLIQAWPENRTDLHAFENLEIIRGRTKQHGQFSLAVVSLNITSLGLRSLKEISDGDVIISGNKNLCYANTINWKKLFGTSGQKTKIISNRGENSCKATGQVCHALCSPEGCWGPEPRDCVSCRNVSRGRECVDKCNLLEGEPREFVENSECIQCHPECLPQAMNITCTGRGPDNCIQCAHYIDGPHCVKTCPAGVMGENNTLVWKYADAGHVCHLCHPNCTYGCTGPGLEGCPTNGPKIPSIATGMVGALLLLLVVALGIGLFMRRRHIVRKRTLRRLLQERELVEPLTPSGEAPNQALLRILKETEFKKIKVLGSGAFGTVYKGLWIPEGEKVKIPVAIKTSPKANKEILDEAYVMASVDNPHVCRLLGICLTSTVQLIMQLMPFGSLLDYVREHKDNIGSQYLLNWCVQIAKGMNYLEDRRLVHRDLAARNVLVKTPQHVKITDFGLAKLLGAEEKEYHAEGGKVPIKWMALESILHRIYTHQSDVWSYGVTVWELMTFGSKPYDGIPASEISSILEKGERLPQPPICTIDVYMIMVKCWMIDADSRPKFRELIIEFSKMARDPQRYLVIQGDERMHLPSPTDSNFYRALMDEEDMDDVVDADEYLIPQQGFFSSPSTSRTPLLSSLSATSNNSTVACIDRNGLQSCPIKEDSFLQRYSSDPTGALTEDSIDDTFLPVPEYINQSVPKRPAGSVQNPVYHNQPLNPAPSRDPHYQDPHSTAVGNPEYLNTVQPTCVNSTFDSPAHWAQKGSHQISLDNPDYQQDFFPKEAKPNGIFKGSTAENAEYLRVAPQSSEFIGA
EGFR Del19/C797S, sequence (P00533 with tags, fused parts or gaps DEL746-750/C797S): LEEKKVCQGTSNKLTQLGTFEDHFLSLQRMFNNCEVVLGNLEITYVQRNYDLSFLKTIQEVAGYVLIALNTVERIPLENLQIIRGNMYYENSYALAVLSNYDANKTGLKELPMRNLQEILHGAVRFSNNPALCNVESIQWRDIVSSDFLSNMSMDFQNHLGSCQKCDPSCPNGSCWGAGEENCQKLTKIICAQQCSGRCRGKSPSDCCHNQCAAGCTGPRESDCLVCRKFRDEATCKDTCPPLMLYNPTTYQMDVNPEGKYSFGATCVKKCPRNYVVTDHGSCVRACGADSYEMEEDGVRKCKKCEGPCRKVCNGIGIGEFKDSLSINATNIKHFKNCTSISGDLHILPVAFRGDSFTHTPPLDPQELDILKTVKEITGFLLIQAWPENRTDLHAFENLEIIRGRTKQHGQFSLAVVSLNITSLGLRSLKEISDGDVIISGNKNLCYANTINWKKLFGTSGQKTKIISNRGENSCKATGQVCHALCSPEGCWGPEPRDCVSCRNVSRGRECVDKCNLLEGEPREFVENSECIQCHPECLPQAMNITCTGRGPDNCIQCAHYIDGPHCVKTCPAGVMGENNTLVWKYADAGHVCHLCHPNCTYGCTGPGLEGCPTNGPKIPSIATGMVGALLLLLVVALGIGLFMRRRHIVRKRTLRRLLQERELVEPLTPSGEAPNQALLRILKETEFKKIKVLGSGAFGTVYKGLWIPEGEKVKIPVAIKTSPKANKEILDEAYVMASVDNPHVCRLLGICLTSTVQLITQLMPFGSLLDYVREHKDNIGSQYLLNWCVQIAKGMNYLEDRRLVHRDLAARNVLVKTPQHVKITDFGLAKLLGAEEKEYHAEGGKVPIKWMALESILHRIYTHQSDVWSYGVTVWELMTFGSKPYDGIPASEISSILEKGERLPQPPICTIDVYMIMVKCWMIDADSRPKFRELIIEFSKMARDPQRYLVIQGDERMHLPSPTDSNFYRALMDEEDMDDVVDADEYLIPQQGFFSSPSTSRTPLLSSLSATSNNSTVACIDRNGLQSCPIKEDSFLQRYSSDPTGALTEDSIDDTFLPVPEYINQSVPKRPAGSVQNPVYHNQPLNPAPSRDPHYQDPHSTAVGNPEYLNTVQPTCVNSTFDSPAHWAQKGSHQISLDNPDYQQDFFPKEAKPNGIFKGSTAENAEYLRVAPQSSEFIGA
EGFR L858R/T790M/C797S, sequence (P00533 25-1210 T790M/C797S/L858R): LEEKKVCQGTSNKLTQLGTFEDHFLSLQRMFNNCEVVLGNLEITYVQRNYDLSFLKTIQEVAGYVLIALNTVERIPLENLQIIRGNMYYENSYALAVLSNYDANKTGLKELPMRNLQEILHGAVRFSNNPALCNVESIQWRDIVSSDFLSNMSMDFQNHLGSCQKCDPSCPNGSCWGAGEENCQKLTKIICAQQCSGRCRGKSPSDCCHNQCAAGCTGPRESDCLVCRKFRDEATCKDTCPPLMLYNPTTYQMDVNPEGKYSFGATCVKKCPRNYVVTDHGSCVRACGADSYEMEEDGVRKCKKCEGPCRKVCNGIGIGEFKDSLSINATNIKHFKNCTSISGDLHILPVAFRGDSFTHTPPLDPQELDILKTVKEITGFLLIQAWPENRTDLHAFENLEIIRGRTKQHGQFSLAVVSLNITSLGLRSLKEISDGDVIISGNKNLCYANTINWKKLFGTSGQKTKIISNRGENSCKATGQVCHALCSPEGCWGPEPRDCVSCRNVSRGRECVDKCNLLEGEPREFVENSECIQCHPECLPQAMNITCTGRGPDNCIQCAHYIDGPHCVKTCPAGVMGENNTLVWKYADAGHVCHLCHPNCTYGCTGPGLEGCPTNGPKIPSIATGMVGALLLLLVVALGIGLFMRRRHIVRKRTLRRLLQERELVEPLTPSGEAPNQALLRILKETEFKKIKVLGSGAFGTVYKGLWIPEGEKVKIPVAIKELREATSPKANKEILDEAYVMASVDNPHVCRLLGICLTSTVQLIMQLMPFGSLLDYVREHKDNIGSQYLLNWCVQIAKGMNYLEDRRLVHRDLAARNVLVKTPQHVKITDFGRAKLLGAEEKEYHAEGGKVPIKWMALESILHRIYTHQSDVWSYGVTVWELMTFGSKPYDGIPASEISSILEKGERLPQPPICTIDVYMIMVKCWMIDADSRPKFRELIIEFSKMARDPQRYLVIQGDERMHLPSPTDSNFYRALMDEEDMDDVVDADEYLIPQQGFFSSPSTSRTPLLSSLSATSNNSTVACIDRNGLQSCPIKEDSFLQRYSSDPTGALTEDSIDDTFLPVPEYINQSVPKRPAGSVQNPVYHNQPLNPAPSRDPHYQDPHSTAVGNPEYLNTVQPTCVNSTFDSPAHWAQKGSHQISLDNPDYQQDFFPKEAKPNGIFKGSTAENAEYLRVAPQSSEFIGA

For the compound `CN1CCC2(CC1)CCN(c1cc(Nc3ccnc(-c4cnn(S(=O)(=O)C5CC5)c4)n3)ncc1C#Cc1cnn(C(F)F)c1)CC2` [Example 321, 2-(1-(Cyclopropylsulfonyl)-1H-pyrazol-4-yl)-N-(5-((1-(difluoromethyl)-1H-pyrazol-4-yl)ethynyl)-4-(9-methyl-3,9-diazaspiro[5.5]undecan-3-yl)pyridin-2-yl)pyrimidin-4-amine], the IC50 was 0.7 nM on EGFR Del19/T790M/C797S (setting [1]); 1.2 nM against EGFR L858R/T790M/C797S (setting [2]); 45.2 nM against EGFR L858R/C797S (setting [3]); 5850 nM against EGFR wildtype (WT) (IC50 WT (nM), 100 μM ATP); 8 nM at EGFR Del19/C797S (setting [4]).
On to `CN(C)C[C@H]1CC[C@H](CNc2cc(Nc3ccnc(-c4cnn(S(=O)(=O)C5CC5)c4)n3)ncc2C#Cc2cnn(C)c2)CC1` [Example 53, N^2-(2-(1-(Cyclopropylsulfonyl)-1H-pyrazol-4-yl)pyrimidin-4-yl)-N^4-(((1r,4r)-4-((dimethylamino)methyl)cyclohexyl)methyl)-5-((1-methyl-1H-pyrazol-4-yl)ethynyl)pyridine-2,4-diamine], for which the IC50 on EGFR Del19/T790M/C797S (setting [5]) was found to be 0.4 nM; on EGFR L858R/T790M/C797S (setting [6]), 0.3 nM; at EGFR L858R/C797S (setting [7]), 141 nM; on EGFR wildtype (WT) (setting [8]), 142 nM; at EGFR Del19/C797S (setting [9]), 5.9 nM.
`CN(C)CCCn1cc(C#Cc2cnc(Nc3ccnc(-c4cnn(S(=O)(=O)C5CC5)c4)n3)cc2N2CCC(C)(CO)CC2)cn1` [Example 120, (1-(2-((2-(1-(Cyclopropylsulfonyl)-1H-pyrazol-4-yl)pyrimidin-4-yl)amino)-5-((1-(3-(dimethylamino)propyl)-1H-pyrazol-4-yl)ethynyl)pyridin-4-yl)-4-methylpiperidin-4-yl)methanol]: the IC50 was 0.7 nM against EGFR Del19/T790M/C797S (setting [1]); 0.7 nM at EGFR Del19/T790M/C797S (setting [5]); 0.5 nM against EGFR L858R/T790M/C797S (setting [2]); 0.3 nM on EGFR L858R/T790M/C797S (setting [6]); 1.3 nM against EGFR L858R/C797S (setting [3]); 0.3 nM on EGFR L858R/C797S (setting [7]). For the same compound, the IC50 is 212 nM against EGFR wildtype (WT) (IC50 WT (nM), 100 μM ATP); 1.6 nM on EGFR wildtype (WT) (setting [8]); 0.8 nM against EGFR Del19/C797S (setting [4]); 0.5 nM on EGFR Del19/C797S (setting [9]).
For the compound `Cn1cc(C#Cc2cnc(Nc3ccnc(-c4cnn(S(=O)(=O)C5CC5)c4)n3)cc2N2CCC(NCC3CC3)CC2)cn1` [Example 124, N-(4-(4-((Cyclopropylmethyl)amino)piperidin-1-yl)-5-((1-methyl-1H-pyrazol-4-yl)ethynyl)pyridin-2-yl)-2-(1-(cyclopropylsulfonyl)-1H-pyrazol-4-yl)pyrimidin-4-amine], the IC50 is 3 nM on EGFR Del19/T790M/C797S (setting [1]); 2.6 nM at EGFR L858R/T790M/C797S (setting [2]); 154 nM on EGFR L858R/C797S (setting [3]); greater than 10000 nM on EGFR wildtype (WT) (IC50 WT (nM), 100 μM ATP); 26.3 nM on EGFR Del19/C797S (setting [4]).
Consider `CC1(CO)CCN(c2cc(Nc3ccnc(-c4cnn(S(=O)(=O)C5CC5)c4)n3)ncc2C#Cc2cn(CC(F)F)c3ccncc23)CC1` [Example 249, (1-(2-((2-(1-(Cyclopropylsulfonyl)-1H-pyrazol-4-yl)pyrimidin-4-yl)amino)-5-((1-(2,2-difluoroethyl)-1H-pyrrolo[3,2-c]pyridin-3-yl)ethynyl)pyridin-4-yl)-4-methylpiperidin-4-yl)methanol], for which the IC50 on EGFR Del19/T790M/C797S (setting [10]) was found to be 3.1 nM; on EGFR Del19/T790M/C797S (setting [1]), 2.6 nM; on EGFR L858R/T790M/C797S (setting [11]), 1.1 nM; against EGFR L858R/T790M/C797S (setting [2]) it was 1.9 nM; at EGFR L858R/C797S (setting [12]), 4.7 nM; against EGFR L858R/C797S (setting [3]) it was 29.7 nM. For the same compound, the IC50 on EGFR wildtype (WT) (setting [13]) was 23.9 nM; against EGFR wildtype (WT) (IC50 WT (nM), 100 μM ATP) it was greater than 10000 nM; on EGFR Del19/C797S (setting [14]), 6.9 nM; against EGFR Del19/C797S (setting [4]) it was 7.5 nM.
Regarding `CC1(CO)CCN(c2cc(Nc3ccnc(Nc4ccccc4S(C)(=O)=O)n3)ncc2C#Cc2cnn(C(F)F)c2)CC1` [Example 271, (1-(5-((1-(Difluoromethyl)-1H-pyrazol-4-yl)ethynyl)-2-((2-((2-(methylsulfonyl)phenyl)amino)pyrimidin-4-yl)amino)pyridin-4-yl)-4-methylpiperidin-4-yl)methanol], the IC50 is 1.8 nM on EGFR Del19/T790M/C797S (setting [10]); 3 nM at EGFR Del19/T790M/C797S (setting [1]); 6.7 nM at EGFR L858R/T790M/C797S (setting [11]); 9.2 nM at EGFR L858R/T790M/C797S (setting [2]); 439 nM at EGFR L858R/C797S (setting [12]); greater than 10000 nM against EGFR L858R/C797S (setting [3]). Besides, the IC50 on EGFR wildtype (WT) (setting [13]) was 411 nM; on EGFR wildtype (WT) (IC50 WT (nM), 100 μM ATP), greater than 10000 nM; at EGFR Del19/C797S (setting [14]), 68.5 nM; against EGFR Del19/C797S (setting [4]), 111 nM.
